Experimental data from patent US20230149418A1, “METHODS AND SYNERGIC COMPOSITIONS FOR TREATING VIRAL INFECTIONS” (HADASIT MEDICAL RESEARCH SERVICES AND DEVELOPMENT LTD., priority 2018, published 2023).
Where “and” joins values, the source holds several entries; their conditions need not be identical. Identical values can stand only once. Like-named read-outs stand apart in the source and are kept apart here.

Test system: HCMV TB40/E strain
Assay: Plaque reduction assay, HCMV TB40/E strain in human foreskin fibroblasts, single drugs and 2-drug combinations (Chou-Talalay)
Assay type: cell-based, human cytomegalovirus
Details: for Dose of drug alone at Fa 0.9: Fa 0.9, drug alone; for EC50: Human betaherpesvirus 5, Fibroblast
Protocol: The CMV strain used was TB40/E. The CMV strain was propagated and tittered in human foreskin fibroblasts (HFF) cells. Cell-free virus stocks and cell-associated clinical isolates were maintained at -70° C. Viral stocks were tittered by serial 10-fold dilution in 24-well tissue culture plates containing HFF monolayers overlaid with agarose-medium. After incubation for 7 to 14 days, plaques were enumerated, and virus titer was determined as plaque forming units (PFU) per milliliter (ml). Stocks of artemisone (10 mM), ganciclovir (10 mM), BDCRB (120 mM), brincidofovir (1 mM), maribavir (10 mM) and letermovir (10 mM) were prepared in DMSO or H2O.
Cell monolayers were inoculated in 24-well culture plates with 0.2 ml of virus suspension containing 60 to 100 PFU per well. After adsorption for 60 -120 min at 37° C., the inoculum was removed, and culture medium was replaced with agarose-medium overlay containing serial concentrations of the tested drug(s). Plates were incubated for 7-14 days at 37° C. in a 5% CO2 incubator. Plaques were then counted microscopically.
The effect of a combination of artemisone with each one of ganciclovir (HCMV DNA polymerase), BDCRB (HCMV terminase inhibitor), brincidofovir (HCMV DNA polymerase inhibitor), maribavir (HCMV UL97 kinase inhibitor) and letermovir (HCMV terminase inhibitor) was evaluated by the classical plaque reduction assay. The in vitro activity of each of the above mentioned antiviral compounds alone or in combination with artemisone was evaluated by the classical plaque reduction assay, using HCMV TB40/E strain in human foreskin fibroblasts cells. The concentration of each antiviral compound that reduced the plaque formation by 50% (EC50) was determined as previously described in Wolf DG et al., J Clin Invest. 1995;95:257-63. The individual EC50 values in human foreskin fibroblasts were as follows: artemisone EC50 - 1 µM; ganciclovir EC50 - 1 µM; maribavir EC50 - 1 µM; BDCRB EC50 - 0.5 µM; letermovir EC50 - 5 nM; brincidofovir EC50 -1 nM.
For the 2-drug combination studies, the EC50 value of each drug was used to determine an equipotent ratio between the two compounds (EC50 of drug 1 / EC50 of drug 2). Serial 2-fold dilutions of a mixture comprising artemisone and another antiviral compound at initial concentrations equivalent to 4-fold the equipotent ratio were added to duplicate wells of cells infected with HCMV. Overall, 5 different concentrations of the drug combinations were used: 4xEC50, 2xEC50, 1xEC50,0.5xEC50,0.25xEC50. The cell monolayers were inoculated in 24-well culture plates with 0.2 ml of virus suspension containing 60 to 100 plaque-forming unit (PFU) per well; the Multiplicity of infection (MOI) was 0.001-0.002 PFU/cell).
D1 and D2 are the doses of the two drugs, and Dx is a dose causing to x% effect (LD0.5 is EC50). Briefly, the software extrapolated a combination index (CI) representing the interaction between the two drugs at specified levels of virus inhibition (that is 50%, 75%, 90%, 95%) versus the percentages of the inhibition induced by each drug alone and in combination (equation 16 in Chou).
A weighted average CI (CIwt) was then calculated for each combination as (CI50+ 2×CI75+3×CI90+4×CI95)/10, to access the drug combinatory effects.
The dose reduction index (DRI) was then calculated as described in Chou. In general, the DRI measures the fold of dose reduction of each drug in the combination at a given effect level compared with the doses of each drug alone. For each one of the below tables: Fa - fraction of virus affected; doses are provided in µm.

CC1CCC2[C@@H](C)[C@H](N3CCS(=O)(=O)CC3)OC3O[C@]4(C)CCC1C32OO4 (stereo in doubt) [artemisone]
Dose of drug alone at Fa 0.75 (Fa 0.75, drug alone, listed as Art): 2.189 µm and 2.23 µm and 3.071 µm | Dose of drug alone at Fa 0.9: 7.66 µm | Dose of drug alone at Fa 0.9 (listed as Art): 7.658 µm and 7.87 µm and 8.905 µm | Dose of drug alone at Fa 0.95 (Fa 0.95, drug alone, listed as Art): 17.9447 µm and 18.59 µm and 18.3723 µm | Dose of drug alone at Fa 0.97 (Fa 0.97, drug alone, listed as Art): 32.8918 µm and 34.26 µm and 30.7567 µm | EC50 (Fa 0.5, drug alone, read-out: Dose of drug alone at Fa 0.5): 626 nM | EC50 (drug alone, human foreskin fibroblasts, read-out: EC50 (concentration that reduced the plaque formation by 50%)): 1000 nM | DRI (dose reduction index) (combination artemisone + brincidofovir, Fa 0.05): 0.16 | DRI (dose reduction index) (combination artemisone + brincidofovir, Fa 0.5): 1.44 | DRI (dose reduction index) (combination artemisone + brincidofovir, Fa 0.75): 3.24 | DRI (dose reduction index) (combination artemisone + brincidofovir, Fa 0.9): up to 7 | DRI (dose reduction index) (combination artemisone + brincidofovir, Fa 0.9, listed as Art): 7.28 | DRI (dose reduction index) (combination artemisone + brincidofovir, Fa 0.95): 12.65 | DRI (dose reduction index) (combination artemisone + brincidofovir, Fa 0.97): 18.74 | DRI (dose reduction index) (combination artemisone + cidofovir, Fa 0.05): 0.3256 | DRI (dose reduction index) (combination artemisone + cidofovir, Fa 0.5): 2.047 | DRI (dose reduction index) (combination artemisone + cidofovir, Fa 0.75): 4.066 | DRI (dose reduction index) (combination artemisone + cidofovir, Fa 0.9): 8.07 | DRI (dose reduction index) (combination artemisone + cidofovir, Fa 0.9, listed as Art): 8.075 | DRI (dose reduction index) (combination artemisone + cidofovir, Fa 0.95): 12.8761 | DRI (dose reduction index) (combination artemisone + cidofovir, Fa 0.97): up to 17.9 | DRI (dose reduction index) (combination artemisone + cidofovir, Fa 0.97, listed as Art): 17.9464 | DRI (dose reduction index) (combination artemisone + ganciclovir, Fa 0.05): 0.2822 | DRI (dose reduction index) (combination artemisone + ganciclovir, Fa 0.5): 1.792 | DRI (dose reduction index) (combination artemisone + ganciclovir, Fa 0.75): 3.573 | DRI (dose reduction index) (combination artemisone + ganciclovir, Fa 0.9, listed as Art): 7.123 | DRI (dose reduction index) (combination artemisone + ganciclovir, Fa 0.95): 11.39 | DRI (dose reduction index) (combination artemisone + ganciclovir, Fa 0.95, listed as Art): 11.3872 | DRI (dose reduction index) (combination artemisone + ganciclovir, Fa 0.97): 15.9002 | DRI (dose reduction index) (combination artemisone + letermovir, Fa 0.05): 0.2276 | DRI (dose reduction index) (combination artemisone + letermovir, Fa 0.5): 1.624 | DRI (dose reduction index) (combination artemisone + letermovir, Fa 0.75): 3.38 | DRI (dose reduction index) (combination artemisone + letermovir, Fa 0.9): 7.04 | DRI (dose reduction index) (combination artemisone + letermovir, Fa 0.9, listed as Art): 7.037 | DRI (dose reduction index) (combination artemisone + letermovir, Fa 0.95): 11.5866 | DRI (dose reduction index) (combination artemisone + letermovir, Fa 0.97): up to 16 | DRI (dose reduction index) (combination artemisone + letermovir, Fa 0.97, listed as Art): 16.5217 | DRI (dose reduction index) (combination artemisone + maribavir, Fa 0.05): 7.032 | DRI (dose reduction index) (combination artemisone + maribavir, Fa 0.5): 15.7458 | DRI (dose reduction index) (combination artemisone + maribavir, Fa 0.75): 21.2706 | DRI (dose reduction index) (combination artemisone + maribavir, Fa 0.9): 28.7 | DRI (dose reduction index) (combination artemisone + maribavir, Fa 0.9, listed as Art): 28.7339 | DRI (dose reduction index) (combination artemisone + maribavir, Fa 0.95): 35.2558 | DRI (dose reduction index) (combination artemisone + maribavir, Fa 0.97): 40.8 | DRI (dose reduction index) (combination artemisone + maribavir, Fa 0.97, listed as Art): 40.7793
